Measurements as given in patent US20240279302A1, “OLFACTORY RECEPTOR EXPRESSING METHOD AND RESPONSE MEASUREMENT METHOD” (Kao Corporation, priority 2021, published 2024).

T1: OR2T11 (Homo sapiens, UniProt Q8NH01)
T1 sequence (Q8NH01 1-316): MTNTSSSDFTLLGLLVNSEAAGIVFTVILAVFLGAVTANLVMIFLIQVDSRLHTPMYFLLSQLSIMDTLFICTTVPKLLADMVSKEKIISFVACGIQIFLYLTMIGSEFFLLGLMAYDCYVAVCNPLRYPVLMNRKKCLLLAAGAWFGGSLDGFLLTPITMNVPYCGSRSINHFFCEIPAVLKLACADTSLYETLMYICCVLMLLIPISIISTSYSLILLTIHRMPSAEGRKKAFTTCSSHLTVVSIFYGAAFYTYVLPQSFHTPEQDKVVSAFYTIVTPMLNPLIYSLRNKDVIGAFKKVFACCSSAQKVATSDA


Tested on: HEK293 cells expressing olfactory receptor
Assay: Luciferase assay: signal to 100 μM sulfur compounds in the presence or absence of a copper ion
Assay type: cell-based, human
Details: 100 μM odorant
Method: A reaction solution as to each consensus olfactory receptor prepared in Examples described above was prepared according to the composition shown in Table 4, left standing for 20 minutes in a clean bench, and then added to each well of a 96-well plate (Becton, Dickinson and Company). The original olfactory receptor was used as to OR4S2. Composition shown in Table 20 was used as to OR11H2 and OR4E2. Subsequently, 100 μL of HEK293 cells suspended in DMEM (Nacalai Tesque, Inc.) was inoculated at 2×10^5 cells/cm^2 to each well, and cultured for 24 hours in an incubator kept at 37° C. and 5% CO2. Cells expressing no olfactory receptor (Mock) were provided as a control.
[…] Under a copper ion addition condition, the test substance solution was adjusted to contain 30 μM copper(II) chloride (FUJIFILM Wako Pure Chemical Corp.) in addition to the odorant. The cells were cultured for 4 hours in a CO2 incubator and the luciferase gene was expressed sufficiently in the cells. Luciferase activity was measured using Dual-Glo™ luciferase assay system (Promega Corp.) in accordance with the operation manual of the product. A luminescence value derived from firefly luciferase induced by test substance stimulation in each well of the 96-well plate was divided by a luminescence value derived from Renilla luciferase to calculate a value (fluc/hRluc) as a signal, which was then used in analysis. The signal under each transfection condition was normalized with the signal value (fluc/hRluc) under an odorant stimulation-free condition defined as 0% and the signal value (fluc/hRluc) by stimulation with 10 μM forskolin defined as 100%, and used as a response (%) in analysis.

Molecule	responsiveness to methyl mercaptan, dimethyl sulfide, dimethyl disulfide, or dimethyl trisulfide in the presence of a copper ion in comparison with that in the absence
consensus OR4K17: consensus olfactory receptor polypeptide (protein, OR4K17 consensus-c, consensus olfactory receptor polypeptide) MESMELLNQSQVSEFILLGLTSSQDIQFLLFALFSVIYVVTVLGNLLIVVTVFNTPNLNTPMYFLLGNLSFVDMTLASFATPKMILNLVKKQKTISFAGCFTQIFLLHLLGGVEMVLLVSMAYDRYVAICKPLHYMTIMNKKVCVLLVVTSWLLGLLHSGLQIPFVVNLPFCGPNVVDSIFCDLPLVTKLACIDTYFVQIVIVANSGMISLSCFIILLISYSLILITIRNHSSTGQSKARSTLTAHITVVILFFGPCIFIYIWPFSNHSVDKFLAVFYTIITPILNPIIYTLRNKEMKTAMKKLWRAFVNSREDT	improved in responsiveness
OR4S2: original human olfactory receptor OR4S2, SEQ ID NO: 18 (protein, listed as Homo sapiens) MEKINNVTEFIFWGLSQSPEIEKVCFVVFSFFYIIILLGNLLIMLTVCLSNLFKSPMYFFLSFLSFVDICYSSVTAPKMIVDLLAKDKTISYVGCMLQLFGVHFFGCTEIFILTVMAYDRYVAICKPLHYMTIMNRETCNKMLLGTWVGGFLHSIIQVALVVQLPFCGPNEIDHYFCDVHPVLKLACTETYIVGVVVTANSGTIALGSFVILLISYSIILVSLRKQSAEGRRKALSTCGSHIAMVVIFFGPCTFMYMRPDTTFSEDKMVAVFYTIITPMLNPLIYTLRNAEVKNAMKKLWGRNVFLEAKGK	improved in responsiveness
consensus OR4E2: consensus olfactory receptor polypeptide (protein, OR4E2 consensus-c, consensus olfactory receptor polypeptide) MDSLNQTRVTEFVFLGLTDNWVLEILFFMAFSAIYVLTLLGNILIIVTIVFTPRLHTPMYFFLSNLSFIDICHSSVTVPKMLEGLLLERKTISFDNCIAQLFFLHLFACAEIFLLTIMAYDRYVAICTPLHYPNVMNMRVCVQLVFALWLGGTVHSLVQTFLTIRLPYCGPNIIDSYFCDVPPVIKLACTDTYLTGMLIVSNSGTISLTCFLALVTSYTVILVSLRKQSAEGRRKALSTCSAHFMVVALFFGPCIFIYTRPDTSFSIDKVVSVFYTVVTPLLNPLIYTLRNEEVKSAMKQLRQRQVFFTKSY	improved in responsiveness
consensus OR2T29: consensus olfactory receptor polypeptide (protein, OR2T29 consensus-c, consensus olfactory receptor polypeptide) MANITWMANHTGRSDFILVGLFSQSKHPALLCVVIFVVFLMALSGNAILILLIHSDAHLHTPMYFFISQLSLMDVMYISVTVPKMLMDQVMGVNKISAPECGMQMFLYLTLAGSEFFLLAAMAYDRYVAICHPLRYPVLMNHRVCLLLVSGCWFLGSVDGFMLTPITMTFPFCRSREIHHFFCEVPAVMKLSCSDTSLYETLMYLCCVLMLLIPVTVISSSYSFILLTIHRMNSAEGRKKAFATCSSHMTVVILFYGAAVYTYMLPSSYHTPEKDMMVSVFYTILTPVLNPLIYSLRNKDVTGALKKMLNVGSVFQETIK	improved in responsiveness
consensus OR2T5: consensus olfactory receptor polypeptide (protein, OR2T5 consensus-c, consensus olfactory receptor polypeptide) MANITWMANHTGKSDFILVGLFSQSKHPALLCVVIFVVFLMALSGNAILILLIHSDAHLHTPMYFFISQLSLMDVMYISVTVPKMLMDQVMGVNKISAPECGMQMFLYLTLAGSEFFLLAAMAYDRYVAICHPLRYPVLMNHRVCLLLASGCWFLGSVDGFMLTPITMTFPFCRSREIHHFFCEVPAVMKLSCSDTSLYETLMYLCCVLMLLIPVTVISSSYSFILLTIHRMNSAEGRKKAFATCSSHMTVVILFYGAAVYTYMLPSSYHTPEKDMMVSVFYTILTPVLNPLIYSLRNKDVTGALKKMLNVGSVFQETIK	improved in responsiveness
consensus OR2T1: consensus olfactory receptor polypeptide (protein, OR2T1 consensus-c, consensus olfactory receptor polypeptide) MEEYNTSSTDFTFMGLFNRKETSGLLFAIISIIFFTALMANGVMIFLIQTDLRLHTPMYFLLSHLSFIDMMYISTIVPKMLVDYLLGQRTISFVGCTAQHFLYLTLVGAEFFLLGLMAYDRYVAICNPLRYPVLMSRRVCWMIIAGSWFGGSLDGFLLTPITMSFPFCNSREINHFFCEAPAVLKLACADTALYETVMYVCCVLMLLIPFSVVIASYARILTTVHRMSSVEGRKKAFATCSSHMTVVTLFYGAAMYTYMLPHSYHKPAQDKVFSVFYTILTPMLNPLIYSLRNKDVTGALKRALGRFKGPQRVSGGVF	improved in responsiveness
consensus OR2T4: consensus olfactory receptor polypeptide (protein, OR2T4 consensus-c, consensus olfactory receptor polypeptide) MANITWMANHTGWSDFILVGLFRQSKHPALLCVVIFVVFLMALSGNAVLILLIHSDAHLHTPMYFFISQLSLMDMMYISVTVPKMLLDQVMGVNKISAPECGMQMFLYVTLAGSEFFLLATMAYDRYVAICHPLRYPVLMNHRVCLFLASGCWFLGSVDGFTFTPITMTFPFCRSREIHHFFCEVPAVLKLSCSDTSLYEIFMYLCCVLMLLIPVTVISSSYLFILLTIHRMNSAEGRKKAFATCSSHMTVVILFYGAAIYTYMLPSSYHTPEKDMMVSVFYTILTPVLNPLIYSLRNKDVMGALKKMLNVGPVFQETMK	improved in responsiveness
consensus OR2T27: consensus olfactory receptor polypeptide (protein, OR2T27 consensus-c, consensus olfactory receptor polypeptide) MEWGNYSMYADFVLLGLFSNTRFPWLLFALILLVFVISIASNTVMIILIHIDSRLHTPMYFLLSQLSLMDILYISTIVPKMLVDQVMGQRAISFAGCTAQHFLYLTLAGAEFFLLGLMSYDRYVAICNPLRYPVLMSRKVCLLIVAAAWLGGSIDGFLLTPVTMQFPFCASREINHFFCEVPALLKLSCTDTSAYETAMYVCCIMMLLIPFSVISASYTRILITVYRMSEAEGRRKAVATCSSHMVVVSLFYGAAMYTYVLPHSYHTPEQDKAVSAFYTILTPMLNPLIYSLRNKDVTGALQKALGRCVSSGKVTTF	improved in responsiveness

Target: T1, OR2T11
Assay: not given
Details: Block E et al., Nat. Prod. Rep. 2017; cited from earlier work

Molecule	response of OR2T11
CCCS [1-propanethiol]	responds
CCCCS [1-butanethiol]	responds
CCCC(C)S (stereo not drawn) [2-pentanethiol]	responds
CCS [ethanethiol]	responds
CC(C)C(C)S (stereo not drawn) [3-methyl-2-butanethiol]	responds
CC(C)(C)S [2-methyl-2-propanethiol]	responds
CC(C)CS [2-methyl-1-propanethiol]	responds
CC(C)S [2-propanethiol]	responds
SC1CCCC1 [cyclopentanethiol]	responds
CCC(C)S (stereo not drawn) [2-butanethiol]	responds
